Measurements taken from patent publication US20080206198A1, “Compounds and methods for pharmico-gene therapy of epithelial sodium channel associated disorders” (priority 2003, published 2008).
Values joined by “and” are separate entries in the source; they are usually repeats but may differ in a detail not shown here. Equal entries are not always repeated. Peptide text beside a SMILES is read from it. * marks the point of attachment. Cbz = O=C(OCc1ccccc1)*

Legend:
mouse lung = test: AV.LacZ gene transfer to mouse lung with Z-LLL (X-gal morphometry); type: in vivo
Method: In vivo studies in mice. Animal studies were performed in accordance with the institutional guidelines of the University of Iowa. To determine the effect of the proteasome inhibitor on AAV mediated gene transfer in mouse lung, 6 week-old BALB/c mice were lightly anesthetized using a methoxyflurane chamber. AV.LacZ (5×10^10 particles) was administered alone or with 400 μM Z-LLL in a 10 μl instillation by nasal aspiration as described by Walters et al. (2000). To prevent unforeseen toxicity of DMSO solvent, the proteasome inhibitor Z-LLL was dissolved in ethanol as a 40 mM stock solution and was included in the viral inoculum at 1% final concentration. Viral infection controls in the absence of Z-LLL also contained a 1% final concentration of ethanol. […] The trachea was incubated and instilled at 10 cm of water pressure with the following solutions in order: PBS, 0.5% glutaraldehyde, 1 mM MgCl2/PBS, and finally X-gal staining reagent for an overnight incubation at room temperature. The X-gal stained mouse lungs were then post fixed in 10% neutral buffered formalin for 48 hours at room temperature and cryopreserved in serial 10%, 20% and 30% sucrose/PBS solutions. Lungs (N=3 for each condition) were embedded in OCT (optimal cutting temperature; Baxter, Warrendale, Pa.) and 15 μm serially sections were analyzed for gene transfer by calculating the percentage of positive cells in the airway epithelium. The diameter of the airway was recorded for classification (>360 μm, 260-350 μm, 160-250 μm, <150 μm) of results following morphometric analysis. Greater than 150 airway cross-sections were quantified for each experimental condition.

Balb/c mice = test: Safety of anthracyclines in Balb/c mice; type: in vivo, mouse; settings: intranasal, 10% HDE
From the text: Animals were followed for seven days post dose.
Safety endpoints included morbidity and mortality, clinical observations, body weights, gross necropsy observations and histopathology. Transduction endpoints included luciferase and GFP analysis.

ENaC = test: Amiloride-sensitive short-circuit current in polarized CF airway epithelia; type: cell-based, human; settings: data not shown
Method: Short-circuit current (Isc) measurement in polarized airway epithelia. Transepithelial short-circuit currents were measured using an epithelial voltage clamp and a self-contained Using chamber as described in Zabner et al. (1998). The basolateral side of the chamber was filled with Ringer's buffer solution containing 135 mM NaCl, 1.2 mM CaCl2, 2.4 mM KH2PO4, 0.2 mM K2HPO4, 1.2 mM MgCl2, and 5 mM HEPES, pH 7.4. The apical side of the chamber was filled with a low-chloride Ringer's containing 135 mM sodium gluconate, 1.2 mM CaCl2, 2.4 mM KH2PO4, 0.2 mM K2HPO4, 1.2 mM MgCl2, and 5 mM HEPES, pH 7.4. During the experiment, the chamber was maintained at 37° C. and aerated with 100% O2. Transepithelial voltage was clamped at zero, and the resulting Isc was measured and recorded following the sequential addition of the following channel antagonist and agonists: 1) 100 μM amiloride (apical), 2) 100 μM 4,4′-diisothiocyna-2,2′-disulfonic stilbene (DIDS) (apical), 3) 100 μM IBMX/10 μM forskolin (apical), 4) 100 μM bumetanide (basolateral). Voltage was referenced to the apical compartment. The series resistance of the Ringer's solution and transwell membrane was electrically compensated before starting experiments. All chemical agonists and antagonists were added to either the apical or the basolateral sides of the monolayer by direct injection and mixed by aerating the Ringer's solution. […]

[1] = 400 μM Z-LLL intranasal, 150 days

**Q.** How did the “airway cells transduced by AV.LacZ, average” value (mouse lung; [1]) turn out when CC(C)C[C@@H](C=O)NC(=O)[C@H](CC(C)C)NC(=O)[C@H](CC(C)C)NC(=O)OCc1ccccc1 [Z-LLL, N-carbobenzoxyl-L-leucinyl-L-leucinyl-L-leucinal] (Cbz-Leu-Leu-Leu-aldehyde) was run?
**A.** about 5.88%

**Q.** What about the “airways cells in the smaller bronchioles (<150 mm) expressing β-galactosidase” value (mouse lung; [1]) of the same compound?
**A.** 1.37±0.41%

**Q.** And the “range of transgene expression in distal airways” value (mouse lung; [1])?
**A.** 0 to 4%

**Q.** What about the “range of transgene expression in proximal airways” value (mouse lung; [1]) of the same compound?
**A.** 5 to 18%

**Q.** What about the “transduction efficiency in larger bronchioles (>350 mm), mean % of the airway epithelium” value (mouse lung; [1]) of the same compound?
**A.** 10.36±1.63% and 10.36+/−1.63%

**Q.** What about the “transgene expression by X-gal staining” value (mouse lung; 3 and 10 days post infection) of the same compound?
**A.** no detectable transgene expression

**Q.** What does the source list for COc1cccc2c1C(=O)c1c(O)c3c(c(O)c1C2=O)C[C@@](O)(C(=O)CO)C[C@@H]3O[C@H]1C[C@H](N)[C@H](O)[C@H](C)O1 [doxorubicin]?
**A.** mortality and clinical observations (Balb/c mice; 7 days): early mortality of some animals, ruffled hair coats and sick mice; body weight (Balb/c mice; over the week): lost considerable body weight; inhibition of ENaC Isc by the single compound (ENaC): equivalent inhibition of ENaC Isc as seen with combined Dox/LLnL
